Reference: patent US20220062240A1, “METHODS OF TREATING CANCER USING A CLK INHIBITOR” (BioSplice Therapeutics, Inc., priority 2018, published 2022)
Like-named read-outs stand apart in the source and are kept apart here.

Assays:
CLK2 = biological target: T1, CLK2 (Homo sapiens, UniProt P49760); assay: CLK2 kinase activity assay (Z-lyte, Ser/Thr 6 peptide); type: biochemical; conditions: recombinant CLK2 kinase, ATP 60 μM; read-out: EC50
T1 construct: purchased Thermo Fisher (Life Technologies), Z'-LYTE Kinase Assay Kits
Description: All reactions were performed in duplicate.

BT-549 = assay: CellTiter-Glo Viability Assay, breast cancer; type: cell-based; conditions: Homo sapiens, 96 h; BT-549, breast cancer, four days; read-out: EC50
CAMA1 = assay: CellTiter-Glo Viability Assay, breast cancer; type: cell-based; conditions: Homo sapiens, CAMA-1, 96 h; CAMA1, breast cancer, four days; read-out: EC50
DU4475 = assay: CellTiter-Glo Viability Assay, breast cancer; type: cell-based; conditions: Homo sapiens, DU-4475, 96 h; DU4475, breast cancer, four days; read-out: EC50
HCC1599 = assay: CellTiter-Glo Viability Assay, breast cancer; type: cell-based; conditions: Homo sapiens, 96 h; HCC1599, breast cancer, four days; read-out: EC50
MCF7 = assay: CellTiter-Glo Viability Assay, breast cancer; type: cell-based; conditions: Homo sapiens, 96 h; MCF7, breast cancer, four days; read-out: EC50
MDA-MB-231-Luc = assay: CellTiter-Glo Viability Assay, breast cancer; type: cell-based; conditions: Homo sapiens, 96 h; MDA-MB-231-Luc, breast cancer, four days; read-out: EC50
T47D = assay: CellTiter-Glo Viability Assay, breast cancer; type: cell-based; conditions: Homo sapiens, 96 h, breast cancer, four days, read-out: EC50
ZR-75-1 = assay: CellTiter-Glo Viability Assay, breast cancer; type: cell-based; conditions: Homo sapiens, 96 h; ZR-75-1, breast cancer, four days; read-out: EC50
all 50 cell lines = assay: CellTiter-Glo Viability Assay, average across all cell lines; type: cell-based; conditions: Homo sapiens; across all 50 cell lines; read-out: average EC50 for inhibition of cancer cell proliferation
Method in brief: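 Proliferation of a multi-tissue human cancer line panel is assessed over four days at 37° C and 5% CO2, seeding 300-3,000 cells/well. Viability is quantified by CellTiter-Glo luminescence, and EC50 values are calculated.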

[1] = test system: colorectal cancer (6 cell lines); assay: CellTiter-Glo Viability Assay, colorectal cancer; type: cell-based; conditions: Homo sapiens, inhibition of cancer cell proliferation
[2] = test system: haematopoietic & lymphoid tumors (13 cell lines); assay: CellTiter-Glo Viability Assay, haematopoietic & lymphoid tumors; type: cell-based; conditions: Homo sapiens, inhibition of cancer cell proliferation
[3] = test system: liver cancer (3 cell lines); assay: CellTiter-Glo Viability Assay, liver cancer; type: cell-based; conditions: Homo sapiens, inhibition of cancer cell proliferation
[4] = test system: lung cancer (4 cell lines); assay: CellTiter-Glo Viability Assay, lung cancer; type: cell-based; conditions: Homo sapiens, inhibition of cancer cell proliferation
[5] = test system: ovarian cancer (4 cell lines); assay: CellTiter-Glo Viability Assay, ovarian cancer; type: cell-based; conditions: Homo sapiens, inhibition of cancer cell proliferation
[6] = test system: pancreatic cancer (8 cell lines); assay: CellTiter-Glo Viability Assay, pancreatic cancer; type: cell-based; conditions: Homo sapiens, inhibition of cancer cell proliferation
[7] = test system: prostate cancer (5 cell lines); assay: CellTiter-Glo Viability Assay, prostate cancer; type: cell-based; conditions: Homo sapiens
CLK3 = CLK3 (Homo sapiens, UniProt P49761); assay: CLK3 kinase activity assay (Z-lyte, Ser/Thr 18 peptide)
[8] = HCT-116, HCT116 cell line, read-out: Colorectal cancer, EC50 (μM) HCT116
[9] = HT-29, HT29 cell line, read-out: Colorectal cancer, EC50 (μM) HT29
[10] = SW-620, SW620 cell line, read-out: Colorectal cancer, EC50 (μM) SW620
[11] = DLD-1 cell line, read-out: Colorectal cancer, EC50 (μM) DLD-1
[12] = SW48 cell line, read-out: Colorectal cancer, EC50 (μM) SW48
[13] = SW480 cell line, read-out: Colorectal cancer, EC50 (μM) SW480
[14] = DND41, DND-41 cell line, read-out: Haematopoietic & Lymphoid tumors, EC50 (μM) DND-41
[15] = MV4-11, MV-4-11 cell line, read-out: Haematopoietic & Lymphoid tumors, EC50 (μM) MV-4-11
[16] = Rec1, REC-1 cell line, read-out: Haematopoietic & Lymphoid tumors, EC50 (μM) REC-1
[17] = SU-DHL-4, SUDHL4 cell line, read-out: Haematopoietic & Lymphoid tumors, EC50 (μM) SUDHL4
[18] = HL-60 cell line, read-out: Haematopoietic & Lymphoid tumors, EC50 (μM) HL-60
[19] = JM1 cell line, read-out: Haematopoietic & Lymphoid tumors, EC50 (μM) JM1
[20] = JURKAT, Clone E6-1 cell line, read-out: Haematopoietic & Lymphoid tumors, EC50 (μM) JURKAT, Clone E6-1
[21] = JeKo-1 cell line, read-out: Haematopoietic & Lymphoid tumors, EC50 (μM) JeKo-1
[22] = KASUMI-1 cell line, read-out: Haematopoietic & Lymphoid tumors, EC50 (μM) KASUMI-1
[23] = Loucy cell line, read-out: Haematopoietic & Lymphoid tumors, EC50 (μM) Loucy
[24] = MOLT-4 cell line, read-out: Haematopoietic & Lymphoid tumors, EC50 (μM) MOLT-4
[25] = TF-1 cell line, read-out: Haematopoietic & Lymphoid tumors, EC50 (μM) TF-1
[26] = TOLEDO cell line, read-out: Haematopoietic & Lymphoid tumors, EC50 (μM) TOLEDO
[27] = SNU-398, SNU398 cell line, read-out: Liver cancer, EC50 SNU398
[28] = HEPG2 cell line, read-out: Liver cancer, EC50 HEPG2
[29] = PLC/PRF/5 cell line, read-out: Liver cancer, EC50 PLC/PRF/5
[30] = A-427, A427 cell line, read-out: Lung cancer, EC50 (μM) A427
[31] = HCC78, HCC-78 cell line, read-out: Lung cancer, EC50 (μM) HCC-78
[32] = NCI-H460 cell line, read-out: Lung cancer, EC50 (μM) NCI-H460
[33] = NCI-H522 cell line, read-out: Lung cancer, EC50 (μM) NCI-H522
[34] = PA-1, PA1 cell line, read-out: Ovarian cancer, EC50 (μM) PA1
[35] = TOV112D, TOV-112D cell line, read-out: Ovarian cancer, EC50 (μM) TOV-112D
[36] = OV-90 cell line, read-out: Ovarian cancer, EC50 (μM) OV-90
[37] = OVCAR-3 cell line, read-out: Ovarian cancer, EC50 (μM) OVCAR-3
[38] = BXPC-3, BxPC3 cell line, read-out: Pancreatic cancer, EC50 BxPC3
[39] = CAPAN-1, Capan1 cell line, read-out: Pancreatic cancer, EC50 Capan1
[40] = Capan-2, Capan2 cell line, read-out: Pancreatic cancer, EC50 Capan2
[41] = MIA PaCa-2 cell line, read-out: Pancreatic cancer, EC50 MIA PaCa-2
[42] = PANC 05.04 cell line, read-out: Pancreatic cancer, EC50 PANC 05.04
[43] = PANC-1 cell line, read-out: Pancreatic cancer, EC50 PANC-1
[44] = UPAFII cell line, read-out: Pancreatic cancer, EC50 UPAFII
[45] = DU-145, read-out: Prostate cancer EC50 Du-145
[46] = PC-3, PC3 cell line, inhibition of cancer cell proliferation, read-out: Prostate cancer EC50 PC3
[47] = 22Rv1 cell line, inhibition of cancer cell proliferation, read-out: Prostate cancer EC50 22Rv1
[48] = LNCap clone FGC cell line, inhibition of cancer cell proliferation, read-out: Prostate cancer EC50 LNCap clone FGC
[49] = VCaP (Sigma) cell line, inhibition of cancer cell proliferation, read-out: Prostate cancer EC50 VCaP (Sigma)

T1 sequence (P49760 whole entry): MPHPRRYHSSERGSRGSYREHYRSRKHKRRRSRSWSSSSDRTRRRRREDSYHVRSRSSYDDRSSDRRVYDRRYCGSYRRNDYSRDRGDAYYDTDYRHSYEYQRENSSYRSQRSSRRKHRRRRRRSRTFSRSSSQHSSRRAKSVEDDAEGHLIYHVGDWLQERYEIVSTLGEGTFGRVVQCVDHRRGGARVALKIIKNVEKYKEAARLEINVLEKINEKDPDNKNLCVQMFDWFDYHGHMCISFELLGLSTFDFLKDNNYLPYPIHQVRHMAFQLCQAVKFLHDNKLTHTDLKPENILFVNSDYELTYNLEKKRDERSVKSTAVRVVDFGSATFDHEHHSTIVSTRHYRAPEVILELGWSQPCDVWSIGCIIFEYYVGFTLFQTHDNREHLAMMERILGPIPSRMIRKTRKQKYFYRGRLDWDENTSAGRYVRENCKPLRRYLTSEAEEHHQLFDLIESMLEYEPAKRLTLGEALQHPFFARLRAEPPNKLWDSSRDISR
CLK3, sequence (P49761 whole entry): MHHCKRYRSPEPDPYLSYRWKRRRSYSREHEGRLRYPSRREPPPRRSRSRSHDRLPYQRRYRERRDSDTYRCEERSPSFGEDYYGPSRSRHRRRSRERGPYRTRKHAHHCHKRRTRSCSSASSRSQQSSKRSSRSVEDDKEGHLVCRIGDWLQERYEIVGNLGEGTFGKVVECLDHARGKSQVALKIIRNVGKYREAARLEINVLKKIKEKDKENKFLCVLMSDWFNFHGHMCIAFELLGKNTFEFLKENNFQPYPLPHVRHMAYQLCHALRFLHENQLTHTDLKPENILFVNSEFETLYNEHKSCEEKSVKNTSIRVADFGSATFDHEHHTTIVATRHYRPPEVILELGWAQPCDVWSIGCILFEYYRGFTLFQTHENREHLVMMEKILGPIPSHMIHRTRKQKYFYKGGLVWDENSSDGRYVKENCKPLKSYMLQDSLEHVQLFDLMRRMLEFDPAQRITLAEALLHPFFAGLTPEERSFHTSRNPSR

Compound CN1CCC(C(=O)Nc2c[nH]nc2-c2nc3c(-c4ccc(F)s4)cccc3[nH]2)CC1 [Compound 90] has an EC50 (CLK2) of 11.2 nM, an EC50 (BT-549) of 116 nM and an EC50 (CAMA1) of 433 nM. For the same compound, the EC50 (DU4475) was 95 nM, the EC50 (HCC1599) was 125 nM and the EC50 (MCF7) was 360 nM. It also gave an EC50 (MDA-MB-231-Luc) of 202 nM, an EC50 (T47D) of 281 nM and an EC50 (ZR-75-1) of 216 nM. For the same compound, the EC50 (all 50 cell lines) was 142 nM, the EC50 [1, 8] was 0.06 µM and the EC50 [1, 9] was 0.171 µM. It also gave an EC50 [1, 10] of 0.047 µM, an EC50 [1, 11] of 0.131 µM and an EC50 [1, 12] of 0.023 µM. It also gave an EC50 [1, 13] of 0.061 µM, an EC50 [2, 14] of 0.106 µM and an EC50 [2, 15] of 0.008 µM. The EC50 [2, 16] was 0.022 µM, the EC50 [2, 17] was 0.079 µM and the EC50 [2, 18] was 0.246 µM. For the same compound, the EC50 [2, 19] was 0.06 µM, the EC50 [2, 20] was 0.226 µM and the EC50 [2, 21] was 0.04 µM. For the same compound, the EC50 [2, 22] was 0.053 µM, the EC50 [2, 23] was 0.105 µM and the EC50 [2, 24] was 0.125 µM. It also gave an EC50 [2, 25] of 0.08 µM, an EC50 [2, 26] of 0.066 µM and an EC50 [3, 27] of 55 nM. The EC50 [3, 28] was 164 nM, the EC50 [3, 29] was 371 nM and the EC50 [4, 30] was 0.13 µM. It also gave an EC50 [4, 31] of 0.136 µM, an EC50 [4, 32] of 0.243 µM and an EC50 [4, 33] of 0.091 µM. It also gave an EC50 [5, 34] of 0.23 µM, an EC50 [5, 35] of 0.101 µM and an EC50 [5, 36] of 0.361 µM. The EC50 [5, 37] was 0.111 µM, the EC50 [6, 38] was 46 nM and the EC50 [6, 39] was 114 nM. For the same compound, the EC50 [6, 40] was 151 nM, the EC50 [6, 41] was 60 nM and the EC50 [6, 42] was 140 nM. The EC50 [6, 43] was 217 nM, the EC50 [6, 44] was 106 nM and the EC50 [7, 45] was 123 nM. The EC50 [7, 46] was 93 nM, the EC50 [7, 47] was 102 nM and the EC50 [7, 48] was 332 nM. It also gave an EC50 [7, 49] of 98 nM and an EC50 (CLK3) of 21.7 nM.

Compound O=C(Nc1c[nH]nc1-c1nc2c(-c3cccc(F)c3)cncc2[nH]1)c1cccnc1 [Compound 91] has an EC50 (CLK2) of 3.1 nM, an EC50 (BT-549) of 24 nM and an EC50 (CAMA1) of 88 nM. It also gave an EC50 (DU4475) of 46 nM, an EC50 (HCC1599) of 8 nM and an EC50 (MCF7) of 336 nM. It also gave an EC50 (MDA-MB-231-Luc) of 118 nM, an EC50 (T47D) of 402 nM and an EC50 (ZR-75-1) of 113 nM. For the same compound, the EC50 (all 50 cell lines) was 99 nM, the EC50 [1, 8] was 0.05 µM and the EC50 [1, 9] was 0.211 µM. For the same compound, the EC50 [1, 10] was 0.044 µM, the EC50 [1, 11] was 0.095 µM and the EC50 [1, 12] was 0.082 µM. The EC50 [1, 13] was 0.078 µM, the EC50 [2, 14] was 0.014 µM and the EC50 [2, 15] was 0.007 µM. It also gave an EC50 [2, 16] of 0.024 µM, an EC50 [2, 17] of 0.009 µM and an EC50 [2, 18] of 0.034 µM. For the same compound, the EC50 [2, 19] was 0.01 µM, the EC50 [2, 20] was 0.031 µM and the EC50 [2, 21] was 0.008 µM. It also gave an EC50 [2, 22] of 0.01 µM, an EC50 [2, 23] of 0.013 µM and an EC50 [2, 24] of 0.045 µM. It also gave an EC50 [2, 25] of 0.008 µM, an EC50 [2, 26] of 0.019 µM and an EC50 [3, 27] of 38 nM. For the same compound, the EC50 [3, 28] was 375 nM, the EC50 [3, 29] was 444 nM and the EC50 [4, 30] was 0.064 µM. It also gave an EC50 [4, 31] of 0.1 µM, an EC50 [4, 32] of 0.476 µM and an EC50 [4, 33] of 0.06 µM. The EC50 [5, 34] was 0.057 µM, the EC50 [5, 35] was 0.102 µM and the EC50 [5, 36] was 0.255 µM. For the same compound, the EC50 [5, 37] was 0.025 µM, the EC50 [6, 38] was 22 nM and the EC50 [6, 39] was 103 nM. It also gave an EC50 [6, 40] of 74 nM, an EC50 [6, 41] of 40 nM and an EC50 [6, 42] of 60 nM. It also gave an EC50 [6, 43] of 413 nM, an EC50 [6, 44] of 136 nM and an EC50 [7, 45] of 91 nM. The EC50 [7, 46] was 31 nM, the EC50 [7, 47] was 21 nM and the EC50 [7, 48] was 50 nM. It also gave an EC50 [7, 49] of 9 nM and an EC50 (CLK3) of 22.5 nM.
